This note sets out measurements from ChEMBL document CHEMBL1201862, “PubChem BioAssay data set” (2004).

Test systems include UACC-257; IGROV-1; PC-3; SF-295; HCT-15; Malme-3M; SR; EKVX; CCRF-CEM; ACHN; HCC 2998; T47D; OVCAR-5; NCI-H23; HL-60; SF-268; NCI-H522.
Common to all, as to assay: DTP human tumour cell line panel, 48 h

Where “and” joins values, the source holds several entries; their conditions need not be identical. Equal values may be shown once.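 How tested: cells in 96-well plates exposed to compound for 48 hours at five concentrations. At the GI50, growth is halved.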 Calls of active or inactive are those of the source. No stated cut-off is given here; in the data, active = GI50 up to about 1.1 µM and inactive = higher.

As for `NCCCc1nonc1C(=O)O`, the GI50 was > 100 µM (inactive) in the experiment with UACC-257; > 100 µM (inactive) in the experiment with IGROV-1; > 100 µM (inactive) in the experiment on PC-3; > 100 µM (inactive) in the experiment on SF-295; over 100 µM in the experiment on HCT-15; > 100 µM (inactive) with Malme-3M. Further, the GI50 with SR, in the experiment on EKVX, in the experiment on CCRF-CEM, with ACHN, in the experiment with HCC 2998 and with T47D was > 100 µM (inactive) each time. Moreover, the GI50 with OVCAR-5, in the experiment on NCI-H23, with HL-60 and in the experiment on SF-268 was > 100 µM (inactive) in each case.

Regarding `C=C(C(=O)O)[C@@H]1C[C@@H]2O[C@H]1[C@@H](O)[C@@H](C)CCCC(C)=CCC[C@@]2(C)O`, the GI50 is > 100 µM (inactive) in the experiment on UACC-257; 92.9 µM (inactive) and > 75 µM (inactive) in the experiment on IGROV-1; > 100 µM (inactive) in the experiment on PC-3; > 100 µM (inactive) in the experiment on SF-295; > 100 µM and 78.3 µM in the experiment on HCT-15; > 100 µM (inactive) and > 72.9 µM (inactive) in the experiment on Malme-3M. Further, the GI50 with SR is 49.1 µM (inactive); in the experiment with EKVX, > 100 µM (inactive) and > 94.4 µM (inactive); in the experiment on CCRF-CEM it was 33.3 µM (inactive) and > 46.8 µM (inactive); in the experiment with ACHN, 90.6 µM (inactive); in the experiment on HCC 2998, > 100 µM (inactive); with T47D it was > 100 µM (inactive) and > 84.9 µM (inactive). The GI50 with OVCAR-5, in the experiment with NCI-H23 and with SF-268 was > 100 µM (inactive) each time.

In the case of `COC(=O)C1CCC(=O)N1CN(C(C)=O)c1ccccc1` (stereo unspecified), the GI50 with UACC-257 is > 100 µM (inactive); with IGROV-1, > 100 µM (inactive); with PC-3, > 100 µM (inactive); in the experiment with SF-295, > 100 µM (inactive); with NCI-H522, > 100 µM (inactive); in the experiment with HCT-15 it was over 100 µM. Further, the GI50 with Malme-3M was > 100 µM (inactive); with SR, 3.39 µM (inactive); in the experiment with EKVX, > 100 µM (inactive); in the experiment with CCRF-CEM it was > 100 µM (inactive); with ACHN, > 100 µM (inactive); in the experiment with T47D, > 100 µM (inactive). In addition, the GI50 in the experiment with OVCAR-5, in the experiment on NCI-H23, with HL-60 and with SF-268 was > 100 µM (inactive) throughout.

Regarding `CCOC(=O)C1Cc2ccc(C)cc2C1=O` (stereo unspecified), the GI50 in the experiment on UACC-257 was > 100 µM (inactive); in the experiment with IGROV-1, 70.6 µM (inactive); in the experiment with PC-3 it was > 100 µM (inactive); in the experiment on SF-295, > 100 µM (inactive); in the experiment with HCT-15, 61.4 µM; in the experiment with Malme-3M it was 70 µM (inactive). The GI50 was 31.7 µM (inactive) with SR; > 100 µM (inactive) in the experiment on EKVX; 34 µM (inactive) in the experiment with CCRF-CEM; > 100 µM (inactive) with ACHN; > 100 µM (inactive) in the experiment on HCC 2998; > 100 µM (inactive) in the experiment with T47D. In addition, the GI50 in the experiment with OVCAR-5 was > 100 µM (inactive); with NCI-H23, 55.6 µM (inactive); in the experiment with HL-60 it was 23.6 µM (inactive); in the experiment on SF-268, 79.3 µM (inactive).

On to `Cc1cc(OCc2nnc3n2N=C(c2cc(F)c(Cl)cc2Cl)/C(=C/c2ccc(Cl)cc2)S3)ccc1Cl`, for which the GI50 with UACC-257 is 38.5 µM (inactive); in the experiment on IGROV-1 it was 20.9 µM (inactive); in the experiment on PC-3, 21.4 µM (inactive); in the experiment with SF-295 it was 29.9 µM (inactive); in the experiment with NCI-H522 it was 14.7 µM (inactive); with HCT-15, 19.7 µM. Also, the GI50 in the experiment on SR is 7.96 µM (inactive); in the experiment on EKVX, 39.4 µM (inactive); in the experiment with CCRF-CEM it was 2.95 µM (inactive); with ACHN, 33.5 µM (inactive); with HCC 2998 it was 19.6 µM (inactive); in the experiment with T47D, 20.4 µM (inactive). The GI50 was 24.1 µM (inactive) in the experiment on OVCAR-5, 27.4 µM (inactive) in the experiment on NCI-H23, 1.91 µM (inactive) in the experiment with HL-60 and 22.8 µM (inactive) with SF-268.

Regarding `N#CC(C#N)=Cc1ccc2c(c1)OC(Cl)O2` (stereo unspecified), the GI50 is 21.7 µM (inactive) with UACC-257; 23.2 µM (inactive) in the experiment on PC-3; 19.3 µM (inactive) in the experiment on SF-295; > 10 µM (inactive) in the experiment with NCI-H522; 19.9 µM in the experiment on HCT-15; 18.1 µM (inactive) in the experiment with Malme-3M. For the same molecule, the GI50 in the experiment on EKVX was 27.4 µM (inactive); with CCRF-CEM, 20.4 µM (inactive); in the experiment with ACHN, 19.9 µM (inactive); in the experiment with T47D, 32.4 µM (inactive); in the experiment on OVCAR-5, 20.9 µM (inactive); with NCI-H23 it was 31.1 µM (inactive). The results for the GI50 with HL-60 and with SF-268 were 6.92 µM (inactive) and 29.4 µM (inactive), respectively.

For `COc1ccc(NC(=O)Oc2cc(C)c3ccc(=O)cc-3o2)c(OC)c1.COc1ccc(NC(=O)Oc2ccc3c(C)cc(=O)oc3c2)c(OC)c1`, the GI50 with IGROV-1 is > 100 µM (inactive); with PC-3 it was > 100 µM (inactive); with SF-295, > 100 µM (inactive); in the experiment with NCI-H522, > 100 µM (inactive); in the experiment with HCT-15, over 100 µM; in the experiment on Malme-3M it was > 100 µM (inactive). Further, the GI50 with EKVX is > 100 µM (inactive); in the experiment with ACHN, > 100 µM (inactive); in the experiment on HCC 2998, 82.8 µM (inactive); in the experiment with T47D it was > 100 µM (inactive); in the experiment with OVCAR-5 it was > 100 µM (inactive); in the experiment with NCI-H23, > 100 µM (inactive). Besides, the GI50 in the experiment with SF-268 is > 100 µM (inactive).

Take `Cn1c(=O)c2nc(Nc3ccccc3)[nH]c2n(C)c1=O`: the GI50 with UACC-257 is > 10 µM (inactive); in the experiment with IGROV-1, > 10 µM (inactive); with PC-3, > 10 µM (inactive); in the experiment on SF-295 it was > 10 µM (inactive); with HCT-15, over 10 µM; with Malme-3M, > 10 µM (inactive). Further, the GI50 in the experiment with SR, with EKVX, with CCRF-CEM, in the experiment on HCC 2998, with T47D and in the experiment with NCI-H23 was > 10 µM (inactive) in each case. Further, the GI50 in the experiment with HL-60 and in the experiment with SF-268 was > 10 µM (inactive) in each case.

For `C=CO/N=[N+](\[O-])N(CC)CC`, the GI50 was > 100 µM (inactive) in the experiment on UACC-257; > 100 µM (inactive) in the experiment with IGROV-1; > 100 µM (inactive) in the experiment with SF-295; > 100 µM (inactive) in the experiment on NCI-H522; over 100 µM in the experiment on HCT-15; > 100 µM (inactive) in the experiment with Malme-3M. The GI50 with SR, in the experiment on EKVX, in the experiment on CCRF-CEM, in the experiment on ACHN, in the experiment on HCC 2998 and in the experiment with T47D was > 100 µM (inactive) each time. In addition, the GI50 in the experiment on OVCAR-5, in the experiment on NCI-H23, with HL-60 and in the experiment with SF-268 was > 100 µM (inactive) each time.
